# Test results taken from ChEMBL document CHEMBL5029145, “Discovery of AZD8154, a Dual PI3Kγδ Inhibitor for the Treatment of Asthma” (J Med Chem, 2021).
# Activity calls are given as the source filed them. The rule behind the calls is not given here.
# What was measured:
# [1] = Clearance in rat at 0.5 mg/kg, iv; format: ADME, organism-based; conditions: in vivo
# [2] = Volume of distribution at steady state in rat at 0.5 mg/kg, iv; format: ADME, organism-based; conditions: in vivo, read-out: Vdss
# [3] = molecular target: Phosphatidylinositol 4,5-bisphosphate 3-kinase catalytic subunit alpha isoform (Homo sapiens, UniProt P42336); test: Inhibition of recombinant human PI3Kalpha assessed as reduction in ADP production using Dic8-PIP2 as substrate pre-treated for 15 mins followed by substrate addition measured after 60 mins by ADP-glo assay
# [4] = molecular target: Phosphatidylinositol 4-phosphate 3-kinase C2 domain-containing subunit beta (Homo sapiens, UniProt O00750); test: Inhibition of PIK3C2B (unknown origin) assessed as reduction in substrate phosphorylation by FRET Adapta assay
# Phosphatidylinositol 4-phosphate 3-kinase C2 domain-containing subunit beta, sequence (O00750 whole entry, the tested form may be a part): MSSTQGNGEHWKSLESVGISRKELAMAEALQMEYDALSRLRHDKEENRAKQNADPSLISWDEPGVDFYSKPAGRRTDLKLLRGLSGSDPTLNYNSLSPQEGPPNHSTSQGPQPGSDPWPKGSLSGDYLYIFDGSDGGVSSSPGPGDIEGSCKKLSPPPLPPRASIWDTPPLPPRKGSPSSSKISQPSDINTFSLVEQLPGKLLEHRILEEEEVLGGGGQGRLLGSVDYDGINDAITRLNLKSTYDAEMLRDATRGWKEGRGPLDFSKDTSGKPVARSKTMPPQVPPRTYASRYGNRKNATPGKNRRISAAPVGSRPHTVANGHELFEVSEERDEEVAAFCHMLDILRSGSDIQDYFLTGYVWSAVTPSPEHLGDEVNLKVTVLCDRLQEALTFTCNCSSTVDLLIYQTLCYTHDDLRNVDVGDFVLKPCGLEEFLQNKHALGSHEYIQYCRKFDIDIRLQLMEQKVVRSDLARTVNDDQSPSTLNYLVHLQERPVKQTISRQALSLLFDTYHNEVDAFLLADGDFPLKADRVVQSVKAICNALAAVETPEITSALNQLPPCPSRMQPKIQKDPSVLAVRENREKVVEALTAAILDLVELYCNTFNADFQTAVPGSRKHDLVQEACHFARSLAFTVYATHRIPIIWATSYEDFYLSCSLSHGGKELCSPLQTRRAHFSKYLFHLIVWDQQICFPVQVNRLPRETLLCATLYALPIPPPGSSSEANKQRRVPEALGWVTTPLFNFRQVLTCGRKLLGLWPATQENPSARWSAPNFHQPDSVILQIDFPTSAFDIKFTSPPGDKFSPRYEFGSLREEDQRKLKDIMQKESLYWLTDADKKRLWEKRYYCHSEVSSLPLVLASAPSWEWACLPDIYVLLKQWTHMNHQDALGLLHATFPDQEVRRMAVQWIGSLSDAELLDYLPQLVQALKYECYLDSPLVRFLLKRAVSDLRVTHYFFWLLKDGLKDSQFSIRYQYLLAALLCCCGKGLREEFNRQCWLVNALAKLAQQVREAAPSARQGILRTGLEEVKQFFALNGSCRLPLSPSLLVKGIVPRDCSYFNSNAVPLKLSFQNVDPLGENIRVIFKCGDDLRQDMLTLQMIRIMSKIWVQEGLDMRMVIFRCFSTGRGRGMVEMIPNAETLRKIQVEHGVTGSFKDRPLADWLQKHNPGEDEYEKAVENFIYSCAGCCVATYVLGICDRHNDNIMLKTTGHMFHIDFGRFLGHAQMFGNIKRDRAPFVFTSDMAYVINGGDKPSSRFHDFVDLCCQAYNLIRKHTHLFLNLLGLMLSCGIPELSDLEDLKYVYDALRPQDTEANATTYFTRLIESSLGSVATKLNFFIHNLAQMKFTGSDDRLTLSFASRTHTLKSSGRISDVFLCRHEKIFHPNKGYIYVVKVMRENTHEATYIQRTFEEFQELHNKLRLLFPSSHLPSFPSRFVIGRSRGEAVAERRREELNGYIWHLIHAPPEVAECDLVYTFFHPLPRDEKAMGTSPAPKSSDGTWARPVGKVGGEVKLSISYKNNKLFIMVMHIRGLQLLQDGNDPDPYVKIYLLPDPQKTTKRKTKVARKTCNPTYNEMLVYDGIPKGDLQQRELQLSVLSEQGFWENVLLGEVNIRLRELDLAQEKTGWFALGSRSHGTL
# Rattus norvegicus [5] = test: Antiinflammatory activity in ovalbumin induced Brown Norway rat assessed as reduction in eosinophil counts in lung lavage fluid at 240 microg/kg administered using nebulizer for 24 hrs prior to ovalbumin challenge measured after 48 hrs by flow cytometry; format: functional, organism-based; conditions: dose 240.0 µg/kg, time 72.0 hrs
# [6] = Apparent terminal half life in rat administered via inhalation; format: ADME; conditions: in vivo, inhaled or intranasal
# [7] = molecular target: T1, Phosphatidylinositol 4,5-bisphosphate 3-kinase catalytic subunit delta isoform/gamma isoform (Homo sapiens) (UniProt P48736+O00329); test: Inhibition of PI3kgamma/delta in eotaxin-3-stimulated human eosinophils derived from asthmatic patient assessed as reduction in CD11b expression pre-incubated for 30 mins followed by eotaxin-3 stimulation for 30 mins by flow cytometry; format: tissue-based; conditions: Eosinophil, time 60.0 min
# T1 sequence (P48736 whole entry, looked up, one chain of several, canonical isoform): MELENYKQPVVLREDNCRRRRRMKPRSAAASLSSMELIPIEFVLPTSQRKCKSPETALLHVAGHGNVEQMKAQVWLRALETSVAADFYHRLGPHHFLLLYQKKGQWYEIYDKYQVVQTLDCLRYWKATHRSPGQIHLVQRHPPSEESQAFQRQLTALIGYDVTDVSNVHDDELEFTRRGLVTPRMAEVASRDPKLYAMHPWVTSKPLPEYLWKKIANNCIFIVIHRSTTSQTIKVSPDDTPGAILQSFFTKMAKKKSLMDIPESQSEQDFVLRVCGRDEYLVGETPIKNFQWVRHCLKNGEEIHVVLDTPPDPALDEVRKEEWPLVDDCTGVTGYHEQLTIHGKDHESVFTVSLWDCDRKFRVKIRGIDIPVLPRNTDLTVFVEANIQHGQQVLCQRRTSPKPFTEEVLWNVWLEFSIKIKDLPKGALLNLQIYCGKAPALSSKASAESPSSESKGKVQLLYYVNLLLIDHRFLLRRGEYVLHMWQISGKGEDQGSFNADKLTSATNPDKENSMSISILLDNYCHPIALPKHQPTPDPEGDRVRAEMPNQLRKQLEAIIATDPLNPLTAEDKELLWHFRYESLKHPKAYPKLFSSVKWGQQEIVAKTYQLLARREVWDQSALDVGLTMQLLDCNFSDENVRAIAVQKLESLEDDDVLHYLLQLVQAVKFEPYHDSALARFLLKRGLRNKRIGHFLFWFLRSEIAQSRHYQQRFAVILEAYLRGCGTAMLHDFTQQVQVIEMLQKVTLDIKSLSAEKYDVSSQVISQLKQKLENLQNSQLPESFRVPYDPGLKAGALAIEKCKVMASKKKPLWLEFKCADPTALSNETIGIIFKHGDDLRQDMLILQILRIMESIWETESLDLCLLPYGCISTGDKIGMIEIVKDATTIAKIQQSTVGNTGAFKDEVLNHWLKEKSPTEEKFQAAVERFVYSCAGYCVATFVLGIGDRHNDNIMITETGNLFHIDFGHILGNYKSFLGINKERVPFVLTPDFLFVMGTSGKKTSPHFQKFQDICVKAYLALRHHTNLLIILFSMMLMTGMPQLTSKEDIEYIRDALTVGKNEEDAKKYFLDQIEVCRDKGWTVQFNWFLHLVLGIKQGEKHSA
# [8] = Permeability in human Caco2 cells; format: ADME, cell-based; conditions: caco-2
# Rattus norvegicus [9] = test: Antiinflammatory activity in ovalbumin-induced Brown Norway rat assessed as reduction in eosinophil counts in bronchoalveolar lavage at 240 microg/kg inhaled using nebulizer 7 hrs prior to ovalbumin challenge measured after 48 hrs by flow cytometry; format: functional, organism-based; conditions: dose 240.0 µg/kg, time 55.0 hrs
# [10] = molecular target: T1, Phosphatidylinositol 4,5-bisphosphate 3-kinase catalytic subunit delta isoform/gamma isoform (Homo sapiens); test: Inhibition of PI3kgamma/delta in anti-CD2/3/28-stimulated human PBMC cells derived from asthmatic patient assessed as reduction in IL-17 release pre-incubated for 1 hr followed by anti-CD2/3/28 stimulation measured after 24 hrs by flow cytometry; format: cell-based; conditions: time 25.0 hrs
# [11] = molecular target: Phosphatidylinositol 4-phosphate 3-kinase C2 domain-containing subunit alpha (Homo sapiens, UniProt O00443); test: Inhibition of PIK3C2A (unknown origin) assessed as reduction in substrate phosphorylation by FRET Adapta assay
# Phosphatidylinositol 4-phosphate 3-kinase C2 domain-containing subunit alpha, sequence (O00443 whole entry, the tested form may be a part, canonical isoform): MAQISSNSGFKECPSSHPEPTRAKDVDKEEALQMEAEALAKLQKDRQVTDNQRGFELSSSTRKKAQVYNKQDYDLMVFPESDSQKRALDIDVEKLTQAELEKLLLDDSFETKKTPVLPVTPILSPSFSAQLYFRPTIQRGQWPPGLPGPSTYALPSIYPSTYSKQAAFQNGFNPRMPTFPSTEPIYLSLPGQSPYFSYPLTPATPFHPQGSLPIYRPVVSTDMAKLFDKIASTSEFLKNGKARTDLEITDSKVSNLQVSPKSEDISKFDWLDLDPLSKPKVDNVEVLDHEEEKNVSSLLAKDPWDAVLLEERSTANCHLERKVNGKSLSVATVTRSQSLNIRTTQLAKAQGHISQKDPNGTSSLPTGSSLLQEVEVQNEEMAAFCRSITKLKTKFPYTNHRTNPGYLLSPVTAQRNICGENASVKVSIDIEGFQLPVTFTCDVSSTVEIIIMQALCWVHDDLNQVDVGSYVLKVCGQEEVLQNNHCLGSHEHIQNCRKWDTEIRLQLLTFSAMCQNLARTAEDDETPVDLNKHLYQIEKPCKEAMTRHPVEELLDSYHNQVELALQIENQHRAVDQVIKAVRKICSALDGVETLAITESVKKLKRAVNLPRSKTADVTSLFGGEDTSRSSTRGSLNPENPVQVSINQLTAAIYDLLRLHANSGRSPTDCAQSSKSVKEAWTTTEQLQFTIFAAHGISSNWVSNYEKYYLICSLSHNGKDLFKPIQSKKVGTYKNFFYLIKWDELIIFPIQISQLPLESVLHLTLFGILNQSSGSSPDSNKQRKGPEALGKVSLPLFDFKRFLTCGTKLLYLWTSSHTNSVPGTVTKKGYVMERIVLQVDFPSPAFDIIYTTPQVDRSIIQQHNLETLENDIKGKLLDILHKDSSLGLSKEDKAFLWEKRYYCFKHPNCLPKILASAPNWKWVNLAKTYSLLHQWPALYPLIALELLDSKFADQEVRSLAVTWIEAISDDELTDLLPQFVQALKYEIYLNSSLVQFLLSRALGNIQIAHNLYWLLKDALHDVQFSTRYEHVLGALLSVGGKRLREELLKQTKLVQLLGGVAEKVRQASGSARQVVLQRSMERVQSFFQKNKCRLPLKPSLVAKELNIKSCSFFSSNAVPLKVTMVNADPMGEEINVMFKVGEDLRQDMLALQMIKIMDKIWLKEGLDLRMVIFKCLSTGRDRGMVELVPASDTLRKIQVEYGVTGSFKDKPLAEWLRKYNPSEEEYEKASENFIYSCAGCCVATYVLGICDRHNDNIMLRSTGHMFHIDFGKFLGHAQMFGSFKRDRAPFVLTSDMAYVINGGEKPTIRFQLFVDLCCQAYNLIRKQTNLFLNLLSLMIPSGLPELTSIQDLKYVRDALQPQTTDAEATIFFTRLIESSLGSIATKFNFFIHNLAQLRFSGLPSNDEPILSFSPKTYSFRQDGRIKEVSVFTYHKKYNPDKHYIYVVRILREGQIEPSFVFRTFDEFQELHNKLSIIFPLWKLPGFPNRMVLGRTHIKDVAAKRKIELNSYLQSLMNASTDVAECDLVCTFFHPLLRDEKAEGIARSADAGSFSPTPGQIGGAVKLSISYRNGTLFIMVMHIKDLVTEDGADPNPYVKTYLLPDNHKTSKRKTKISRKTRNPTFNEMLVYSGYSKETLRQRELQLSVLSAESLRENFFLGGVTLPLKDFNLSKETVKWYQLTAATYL
# [12] = molecular target: T2, Phosphatidylinositol 4,5-bisphosphate 3-kinase catalytic subunit delta isoform (Homo sapiens, UniProt O00329); test: Inhibition of PI3Kdelta in anti-IgM-stimulated human JeKo-1 cells assessed as inhibition of AKT phosphorylation at Ser473 residue incubated for 60 mins by TR-FRET assay
# T2 sequence (O00329 whole entry): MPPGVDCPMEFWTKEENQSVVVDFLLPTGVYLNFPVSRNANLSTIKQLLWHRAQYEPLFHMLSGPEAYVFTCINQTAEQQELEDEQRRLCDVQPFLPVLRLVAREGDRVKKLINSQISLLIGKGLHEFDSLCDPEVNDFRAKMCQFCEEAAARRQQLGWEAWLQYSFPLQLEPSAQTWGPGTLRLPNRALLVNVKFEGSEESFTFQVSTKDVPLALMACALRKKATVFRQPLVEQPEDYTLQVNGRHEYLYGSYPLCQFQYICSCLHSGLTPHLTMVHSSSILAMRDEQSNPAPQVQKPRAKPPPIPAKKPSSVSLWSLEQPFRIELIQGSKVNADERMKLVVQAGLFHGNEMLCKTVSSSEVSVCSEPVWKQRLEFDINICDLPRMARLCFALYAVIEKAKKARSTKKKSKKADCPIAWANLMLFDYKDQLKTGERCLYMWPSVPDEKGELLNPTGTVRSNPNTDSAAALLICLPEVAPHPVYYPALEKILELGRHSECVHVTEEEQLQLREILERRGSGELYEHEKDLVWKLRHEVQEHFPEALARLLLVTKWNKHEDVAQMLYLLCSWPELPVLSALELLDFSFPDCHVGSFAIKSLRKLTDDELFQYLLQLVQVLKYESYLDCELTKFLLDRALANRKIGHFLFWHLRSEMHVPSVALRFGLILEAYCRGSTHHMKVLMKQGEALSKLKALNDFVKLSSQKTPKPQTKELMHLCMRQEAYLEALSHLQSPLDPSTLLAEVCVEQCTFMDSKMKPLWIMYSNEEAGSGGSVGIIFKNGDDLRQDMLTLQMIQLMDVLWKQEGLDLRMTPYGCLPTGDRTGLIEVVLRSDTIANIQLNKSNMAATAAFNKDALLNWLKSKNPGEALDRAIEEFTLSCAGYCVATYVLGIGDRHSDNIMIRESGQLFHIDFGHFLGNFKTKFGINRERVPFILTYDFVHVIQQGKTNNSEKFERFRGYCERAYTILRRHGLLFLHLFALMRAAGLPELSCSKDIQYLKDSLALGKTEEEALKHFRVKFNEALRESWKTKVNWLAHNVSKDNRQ
# [13] = molecular target: Phosphatidylinositol 3-kinase catalytic subunit type 3 (Homo sapiens, UniProt Q8NEB9); test: Inhibition of PIK3C3 (unknown origin) assessed as reduction in substrate phosphorylation by FRET Adapta assay
# Rattus norvegicus [14] = test: Antiinflammatory activity in ovalbumin induced Brown Norway rat assessed as reduction in eosinophil counts in lung lavage fluid at 240 microg/kg administered using nebulizer for 12 hrs prior to ovalbumin challenge measured after 48 hrs by flow cytometry; format: functional, organism-based; conditions: dose 240.0 µg/kg, time 60.0 hrs
# [15] = Oral bioavailability in rat at 1.0 mg/kg; format: ADME, organism-based; conditions: in vivo
# [16] = molecular target: T1, Phosphatidylinositol 4,5-bisphosphate 3-kinase catalytic subunit delta isoform/gamma isoform (Homo sapiens); test: Inhibition of PI3kgamma/delta in anti-CD2/3/28-stimulated human PBMC cells derived from asthmatic patient assessed as reduction in IL-5 release pre-incubated for 1 hr followed by anti-CD2/3/28 stimulation measured after 24 hrs by flow cytometry; format: cell-based; conditions: time 25.0 hrs
structure (smiles),measurement,setting,value
Cc1nc(Nc2cccc(N3CCCC3=O)n2)sc1-c1cc2c(c(S(C)(=O)=O)c1)C(=O)N([C@@H](C)C1CC1)C2 [AZD-8154],clearance,[1],20 mL/min/kg
same,Vd,[2],4 L/kg
same,IC50,[3],63.1 nM
same,IC50,[4],3.16 nM
same,Activity,Rattus norvegicus [5],inactive
same,half-life,[6],7.1 h
same,Activity,[7],Active
same,permeability,[8],Permeable
same,Activity,Rattus norvegicus [9],Active
same,Activity,[10],Active
same,IC50,[11],3980 nM
same,IC50,[12],3.98 nM
same,IC50,[13],501 nM
same,Activity,Rattus norvegicus [14],inactive
same,bioavailability,[15],< 4%
same,Activity,[16],Active
